Reference: ChEMBL document CHEMBL1201862, “PubChem BioAssay data set” (2004)
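In this assay, cells in 96-well plates receive the compound at five concentrations for 48 hours. Endpoints are linearly interpolated between the surrounding concentrations. GI50 is the concentration that inhibits growth by half.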 Calls of active or inactive are those of the source. No stated cut-off is given here; in the data, active = GI50 up to about 1.1 µM and inactive = higher.

Legend:
Assay in all cases: NCI anticancer screen, dose series, 48 h
[1] = tested on: A498
[2] = tested on: A549
[3] = tested on: CAKI-1
[4] = tested on: CCRF-CEM
[5] = tested on: COLO 205
[6] = tested on: DLD-1
[7] = tested on: DMS-114
[8] = tested on: DMS-273
[9] = tested on: EKVX
[10] = tested on: HCC 2998
[11] = tested on: HCT-116
[12] = tested on: HCT-15
[13] = tested on: HL-60
[14] = tested on: HOP-18
[15] = tested on: HOP-62
[16] = tested on: HOP-92
[17] = tested on: HT-29
[18] = tested on: IGROV-1
[19] = tested on: K562
[20] = tested on: KM-20L2
[21] = tested on: KM12
[22] = tested on: LOX IMVI
[23] = tested on: M19-MEL
[24] = tested on: MCF7
[25] = tested on: MOLT-4
[26] = tested on: Malme-3M
[27] = tested on: NCI-H226
[28] = tested on: NCI-H23
[29] = tested on: NCI-H460
[30] = tested on: NCI-H522
[31] = tested on: NCI/ADR-RES
[32] = tested on: OVCAR-3
[33] = tested on: OVCAR-4
[34] = tested on: OVCAR-5
[35] = tested on: OVCAR-8
[36] = tested on: RPMI-8226
[37] = tested on: RXF 393
[38] = tested on: SF-268
[39] = tested on: SF-295
[40] = tested on: SF-539
[41] = tested on: SK-MEL-28
[42] = tested on: SK-MEL-2
[43] = tested on: SK-MEL-5
[44] = tested on: SK-OV-3
[45] = tested on: SN12C
[46] = tested on: SNB-19
[47] = tested on: SNB-75
[48] = tested on: SNB-78
[49] = tested on: SW-620
[50] = tested on: U-251
[51] = tested on: UACC-257
[52] = tested on: UACC-62
[53] = tested on: UO-31
[54] = tested on: XF498
[55] = tested on: 786-0
[56] = tested on: ACHN
[57] = tested on: LXFL 529
[58] = tested on: M14
[59] = tested on: SR
[60] = tested on: TK-10

C#CCNC(=O)CCC(N)C(=O)O (configuration not stated)
GI50 [1]: > 100 µM (inactive)
GI50 [2]: > 100 µM (inactive)
GI50 [3]: > 100 µM (inactive)
GI50 [4]: > 100 µM (inactive)
GI50 [5]: > 100 µM (inactive)
GI50 [6]: > 100 µM (inactive)
GI50 [7]: > 100 µM (inactive)
GI50 [8]: > 100 µM (inactive)
GI50 [9]: > 100 µM (inactive)
GI50 [10]: > 100 µM (inactive)
GI50 [11]: > 100 µM (inactive)
GI50 [12]: > 100 µM
GI50 [13]: > 100 µM (inactive)
GI50 [14]: > 100 µM (inactive)
GI50 [15]: > 100 µM (inactive)
GI50 [16]: > 100 µM (inactive)
GI50 [17]: > 100 µM (inactive)
GI50 [18]: > 100 µM (inactive)
GI50 [19]: > 100 µM (inactive)
GI50 [20]: > 100 µM (inactive)
GI50 [21]: > 100 µM (inactive)
GI50 [22]: > 100 µM (inactive)
GI50 [23]: > 100 µM (inactive)
GI50 [24]: > 100 µM (inactive)
GI50 [25]: > 100 µM (inactive)
GI50 [26]: > 100 µM (inactive)
GI50 [27]: > 100 µM (inactive)
GI50 [28]: > 100 µM (inactive)
GI50 [29]: > 100 µM (inactive)
GI50 [30]: > 100 µM (inactive)
GI50 [31]: > 100 µM (inactive)
GI50 [32]: > 100 µM (inactive)
GI50 [33]: > 100 µM (inactive)
GI50 [34]: > 100 µM (inactive)
GI50 [35]: > 100 µM (inactive)
GI50 [36]: > 100 µM (inactive)
GI50 [37]: > 100 µM (inactive)
GI50 [38]: > 100 µM (inactive)
GI50 [39]: > 100 µM (inactive)
GI50 [40]: > 100 µM (inactive)
GI50 [41]: > 100 µM (inactive)
GI50 [42]: > 100 µM (inactive)
GI50 [43]: > 100 µM (inactive)
GI50 [44]: > 100 µM (inactive)
GI50 [45]: > 100 µM (inactive)
GI50 [46]: > 100 µM (inactive)
GI50 [47]: > 100 µM (inactive)
GI50 [48]: > 100 µM (inactive)
GI50 [49]: > 100 µM (inactive)
GI50 [50]: > 100 µM (inactive)
GI50 [51]: > 100 µM (inactive)
GI50 [52]: > 100 µM (inactive)
GI50 [53]: > 100 µM (inactive)
GI50 [54]: > 100 µM (inactive)

CC(C)/C=C1\CCC(CN2CCCC2)C1=O (configuration not stated)
GI50 [55]: 2.01 µM (inactive)
GI50 [1]: > 42.3 µM (inactive)
GI50 [2]: 13.8 µM (inactive)
GI50 [56]: 18.2 µM (inactive)
GI50 [3]: 5.16 µM (inactive)
GI50 [4]: 3.48 µM (inactive)
GI50 [5]: 7.05 µM (inactive)
GI50 [6]: 3.88 µM (inactive)
GI50 [7]: 12.9 µM (inactive)
GI50 [9]: 20.8 µM (inactive)
GI50 [10]: 19.5 µM (inactive)
GI50 [11]: 8.97 µM (inactive)
GI50 [12]: 5.05 µM
GI50 [13]: 3.51 µM (inactive)
GI50 [14]: 7.73 µM (inactive)
GI50 [15]: > 87.5 µM (inactive)
GI50 [16]: 17.5 µM (inactive)
GI50 [17]: 9.73 µM (inactive)
GI50 [18]: 25.7 µM (inactive)
GI50 [19]: 2.69 µM (inactive)
GI50 [20]: 18.5 µM (inactive)
GI50 [21]: 10 µM (inactive)
GI50 [22]: 19.9 µM (inactive)
GI50 [57]: 3.03 µM (inactive)
GI50 [58]: 10.9 µM (inactive)
GI50 [23]: 24.1 µM (inactive)
GI50 [25]: 3.63 µM (inactive)
GI50 [26]: 6.28 µM (inactive)
GI50 [27]: 20.9 µM (inactive)
GI50 [28]: 16.7 µM (inactive)
GI50 [29]: 39 µM (inactive)
GI50 [30]: 1.95 µM (inactive)
GI50 [32]: 17.4 µM (inactive)
GI50 [33]: 17.6 µM (inactive)
GI50 [34]: 20 µM (inactive)
GI50 [35]: 10.4 µM (inactive)
GI50 [36]: 0.472 µM (active)
GI50 [37]: 16 µM (inactive)
GI50 [38]: 22.3 µM (inactive)
GI50 [39]: 42.6 µM (inactive)
GI50 [40]: 18.7 µM (inactive)
GI50 [41]: 17.5 µM (inactive)
GI50 [42]: 20.7 µM (inactive)
GI50 [43]: 17.1 µM (inactive)
GI50 [44]: > 100 µM (inactive)
GI50 [45]: 18.7 µM (inactive)
GI50 [46]: > 41.6 µM (inactive)
GI50 [48]: 21 µM (inactive)
GI50 [59]: 2.82 µM (inactive)
GI50 [49]: 2.44 µM (inactive)
GI50 [60]: 10.7 µM (inactive)
GI50 [50]: 14.6 µM (inactive)
GI50 [51]: 17.7 µM (inactive)
GI50 [52]: 20.6 µM (inactive)
GI50 [53]: 18.5 µM (inactive)
GI50 [54]: 16.6 µM (inactive)

CCc1cccc(C)c1NC(=O)CCc1nnc(SC)o1
GI50 [55]: > 100 µM (inactive)
GI50 [1]: > 100 µM (inactive)
GI50 [2]: > 100 µM (inactive)
GI50 [56]: > 100 µM (inactive)
GI50 [3]: > 100 µM (inactive)
GI50 [4]: > 100 µM (inactive)
GI50 [5]: > 100 µM (inactive)
GI50 [6]: > 100 µM (inactive)
GI50 [7]: > 100 µM (inactive)
GI50 [8]: > 100 µM (inactive)
GI50 [9]: > 100 µM (inactive)
GI50 [10]: > 100 µM (inactive)
GI50 [11]: > 100 µM (inactive)
GI50 [12]: > 100 µM
GI50 [13]: > 100 µM (inactive)
GI50 [14]: > 100 µM (inactive)
GI50 [15]: > 100 µM (inactive)
GI50 [16]: > 100 µM (inactive)
GI50 [17]: > 100 µM (inactive)
GI50 [18]: > 100 µM (inactive)
GI50 [19]: > 100 µM (inactive)
GI50 [20]: > 100 µM (inactive)
GI50 [21]: > 100 µM (inactive)
GI50 [22]: > 100 µM (inactive)
GI50 [57]: > 100 µM (inactive)
GI50 [58]: > 100 µM (inactive)
GI50 [23]: > 100 µM (inactive)
GI50 [25]: > 100 µM (inactive)
GI50 [26]: > 100 µM (inactive)
GI50 [28]: > 100 µM (inactive)
GI50 [29]: > 100 µM (inactive)
GI50 [30]: > 100 µM (inactive)
GI50 [32]: > 100 µM (inactive)
GI50 [33]: > 100 µM (inactive)
GI50 [34]: > 100 µM (inactive)
GI50 [35]: > 100 µM (inactive)
GI50 [36]: > 100 µM (inactive)
GI50 [37]: > 100 µM (inactive)
GI50 [38]: > 100 µM (inactive)
GI50 [39]: > 100 µM (inactive)
GI50 [40]: > 100 µM (inactive)
GI50 [41]: > 100 µM (inactive)
GI50 [42]: > 100 µM (inactive)
GI50 [43]: > 100 µM (inactive)
GI50 [44]: > 100 µM (inactive)
GI50 [45]: > 100 µM (inactive)
GI50 [46]: > 100 µM (inactive)
GI50 [47]: > 79.4 µM (inactive)
GI50 [48]: > 100 µM (inactive)
GI50 [59]: 0.622 µM (active)
GI50 [49]: > 100 µM (inactive)
GI50 [60]: > 100 µM (inactive)
GI50 [50]: > 100 µM (inactive)
GI50 [51]: > 100 µM (inactive)
GI50 [52]: > 100 µM (inactive)
GI50 [53]: > 100 µM (inactive)
GI50 [54]: > 100 µM (inactive)
